Experimental data as given in patent US20250144067A1, “PERSONALIZED STARVATION THERAPY FOR CANCER” (Faeth Therapeutics, Inc., priority 2021, published 2025).
Where a name gives a salt, the structure may show the parent alone. Read-outs that look alike come from different tables or passages of the source.

How the values were obtained:
[1] = tested on: NCI-H292 lung cancer cells; test: FDA drug screening, complete media vs cholesterol-free media without statin (TABLE 1); type: cell-based, human
[2] = tested on: NCI-H292 lung cancer cells; test: FDA drug screening, complete media vs cholesterol-free media with simvastatin (TABLE 2); type: cell-based, human
[3] = Complete minus Cholesterol-free, >0 enhanced anti-cancer activity, about 0 neutral, <0 antagonist
[4] = NCI-H292 cells, cholesterol-free media without statin
[5] = NCI-H292 cells, drug in cholesterol-free media with simvastatin 0.04 μM
[6] = NCI-H292 cells, drug in complete media
[7] = complete media vs cholesterol-free media + simvastatin (0.04 μM), >0 enhanced anti-cancer activity, about 0 neutral, <0 antagonist
[8] = Complete minus Cholesterol-free, […]
[9] = NCI-H292 cells, FDA drug library screen, cholesterol-free media without statin
[10] = NCI-H292 cells, FDA drug library screen, complete media
[11] = NCI-H292 cells, FDA drug library screen, cholesterol-free media with simvastatin 0.04 μM
[12] = complete media vs cholesterol-free media + simvastatin (0.04 μM), […]
[13] = NCI-H292 cells, cholesterol-free media without statin, FDA drug library screen
[14] = NCI-H292 cells, complete media, FDA drug library screen
[15] = NCI-H292 cells, cholesterol-free media with simvastatin 0.04 μM, FDA drug library screen (TABLE 2)
[16] = NCI-H292 cells, complete media, FDA drug library screen (TABLE 2)
[17] = complete media minus cholesterol-free media + simvastatin (0.04 μM), >0 enhanced anti-cancer activity, about 0 neutral, <0 antagonist
[18] = complete media minus cholesterol-free media + simvastatin, >0 enhanced anti-cancer activity, about 0 neutral, <0 antagonist
[19] = NCI-H292 cells, FDA library drug in cholesterol-free media with simvastatin 0.04 μM
[20] = NCI-H292 cells, FDA library drug in complete media
[21] = complete vs cholesterol-free media, greater than 0 enhanced anti-cancer activity, about 0 neutral, below 0 antagonists
[22] = NCI-H292 cells, cholesterol-free media with simvastatin 0.04 μM, cell growth value in FDA drug screen
[23] = NCI-H292 cells, complete media, cell growth value in FDA drug screen
[24] = Complete minus Cholesterol-free, greater than 0 enhanced anti-cancer activity, about 0 neutral, below 0 antagonists
[25] = NCI-H292 cells in complete media

## CC(N)CCCC(C)(C)O (centres unmarked) [Heptaminol (hydrochloride)]
[1]; [3]
  Difference: −0.27
[1]; [4]
  Cholesterol-free: 0.8584
[1]; NCI-H292 cells, complete media
  Complete: 0.5894
[2]; [5]
  Cholesterol-free media + simvastatin (0.04 μM): 1.069
[2]; [6]
  Complete Media: 0.8484
[2]; [7]
  Difference: −0.22

## COc1ccc([C@@H]2CC(=O)c3c(O)cc(O[C@@H]4O[C@H](CO[C@@H]5O[C@@H](C)[C@H](O)[C@@H](O)[C@H]5O)[C@@H](O)[C@H](O)[C@H]4O)cc3O2)cc1O [Hesperidin]
[1]; [8]
  Difference: −0.08
[1]; [9]
  Cholesterol-free: 1.106
[1]; [10]
  Complete: 1.03
[2]; [11]
  Cholesterol-free media + simvastatin (0.04 μM): 1.822
[2]; [10]
  Complete Media: 1.671
[2]; [12]
  Difference: −0.15

## CCCCCCOC(=O)CCC(=O)CN [Hexaminolevulinate (hydrochloride)]
[1]; [3]
  Difference: 0.00
[1]; [13]
  Cholesterol-free: 0.7384
[1]; [14]
  Complete: 0.7376
[2]; [5]
  Cholesterol-free media + simvastatin (0.04 μM): 1.074
[2]; [6]
  Complete Media: 0.8971
[2]; [7]
  Difference: −0.18

## CCCCCCc1ccc(O)cc1O [Hexylresorcinol]
[1]; [3]
  Difference: 0.00
[1]; [13]
  Cholesterol-free: 1.034
[1]; [14]
  Complete: 1.036
[2]; [5]
  Cholesterol-free media + simvastatin (0.04 μM): 1.514
[2]; [6]
  Complete Media: 1.344
[2]; [7]
  Difference: −0.17

## C[C@@H]1[C@@H](c2ccc(Cl)cc2)SC(=O)N1C(=O)NC1CCCCC1 [Hexythiazox]
[1]; [8]
  Difference: −0.16
[1]; [9]
  Cholesterol-free: 1.557
[1]; [10]
  Complete: 1.396
[2]; NCI-H292 cells, cholesterol-free media with simvastatin 0.04 μM, […]
  Cholesterol-free media + simvastatin (0.04 μM): 0.8643
[2]; NCI-H292 cells, complete media, […]
  Complete Media: 0.9913
[2]; complete media minus cholesterol-free media + simvastatin, […]
  Difference: 0.13

## Cl.Cl.NCCc1c[nH]cn1 [Histamine (dihydrochloride)]
[1]
  Cholesterol-free: 1.708
  Complete: 1.081
  Difference: −0.63
[2]
  Cholesterol-free media + simvastatin (0.04 μM): 0.9209
  Complete Media: 0.9238
  Difference: 0.00

## NCCc1c[nH]cn1.O=P(O)(O)O [Histamine (phosphate)]
[1]; [3]
  Difference: −0.23
[1]; [4]
  Cholesterol-free: 1.032
[1]; NCI-H292 cells, complete media
  Complete: 0.8034
[2]; [15]
  Cholesterol-free media + simvastatin (0.04 μM): 1.025
[2]; [16]
  Complete Media: 1.021
[2]; [17]
  Difference: 0.00

## NCCc1c[nH]cn1 [Histamine]
[1]; [3]
  Difference: 0.05
[1]; [13]
  Cholesterol-free: 0.9318
[1]; [14]
  Complete: 0.9813
[2]; [11]
  Cholesterol-free media + simvastatin (0.04 μM): 1.15
[2]; [10]
  Complete Media: 1.573
[2]; [18]
  Difference: 0.42

## C[N+]1(C)[C@@H]2CC[C@H]1C[C@@H](OC(=O)C(O)c1ccccc1)C2.[Br-] (some centres unmarked) [Homatropine (methylbromide)]
[1]; [8]
  Difference: −0.22
[1]; [4]
  Cholesterol-free: 1.269
[1]; NCI-H292 cells, complete media
  Complete: 1.05
[2]; [19]
  Cholesterol-free media + simvastatin (0.04 μM): 1.302
[2]; [20]
  Complete Media: 0.9164
[2]; [12]
  Difference: −0.39

## COC(=O)C[C@](O)(CCCC(C)(C)O)C(=O)O[C@@H]1C(OC)=C[C@]23CCCN2CCc2cc4c(cc2[C@H]13)OCO4 [Homoharringtonine]
[1]; [3]
  Difference: −0.02
[1]; [13]
  Cholesterol-free: −0.02013
[1]; [14]
  Complete: −0.04264
[2]; [15]
  Cholesterol-free media + simvastatin (0.04 μM): 0.0331
[2]; [16]
  Complete Media: 0.0063
[2]; [17]
  Difference: −0.03

## CC1CC(OC(=O)c2ccccc2O)CC(C)(C)C1 (centres unmarked) [Homosalate]
[1]; [4]
  Cholesterol-free: 0.9096
[1]; NCI-H292 cells, complete media
  Complete: 0.5831
[1]; [21]
  Difference: −0.33
[2]; [22]
  Cholesterol-free media + simvastatin (0.04 μM): 1.411
[2]; [23]
  Complete Media: 1.442
[2]; [18]
  Difference: 0.03

## NNc1nncc2ccccc12 [Hydralazine (hydrochloride)]
[1]; [4]
  Cholesterol-free: 1.529
[1]; NCI-H292 cells, complete media
  Complete: 1.081
[1]; [21]
  Difference: −0.45
[2]; [22]
  Cholesterol-free media + simvastatin (0.04 μM): 1.049
[2]; [23]
  Complete Media: 1.113
[2]; [18]
  Difference: 0.06

## CCCC(=O)O[C@]1(C(=O)CO)CC[C@H]2[C@@H]3CCC4=CC(=O)CC[C@]4(C)[C@H]3[C@@H](O)C[C@@]21C [Hydrocortisone 17-butyrate]
[1]; [3]
  Difference: −0.03
[1]; [13]
  Cholesterol-free: 1.162
[1]; [14]
  Complete: 1.133
[2]; [11]
  Cholesterol-free media + simvastatin (0.04 μM): 0.4747
[2]; [10]
  Complete Media: 0.6696
[2]; [18]
  Difference: 0.19

## CC(=O)OCC(=O)[C@@]1(O)CC[C@H]2[C@@H]3CCC4=CC(=O)CC[C@]4(C)[C@H]3[C@@H](O)C[C@@]21C [Hydrocortisone acetate]
[1]; [3]
  Difference: −0.20
[1]; [4]
  Cholesterol-free: 0.8261
[1]; NCI-H292 cells, complete media
  Complete: 0.6264
[2]; [11]
  Cholesterol-free media + simvastatin (0.04 μM): 0.7827
[2]; [10]
  Complete Media: 0.63
[2]; [7]
  Difference: −0.15

## CCCC(=O)O[C@]1(C(=O)COC(=O)CC)CC[C@H]2[C@@H]3CCC4=CC(=O)CC[C@]4(C)[C@H]3[C@@H](O)C[C@@]21C [Hydrocortisone buteprate]
[1]; Complete minus Cholesterol-free, greater than 0 enhanced anti-cancer activity, about 0 neutral, below 0 antagonist
  Difference: −0.17
[1]; [9]
  Cholesterol-free: 0.8122
[1]; [10]
  Complete: 0.6382
[2]; [22]
  Cholesterol-free media + simvastatin (0.04 μM): 0.6107
[2]; [23]
  Complete Media: 0.6538
[2]; [18]
  Difference: 0.04

## C[C@]12CCC(=O)C=C1CC[C@@H]1[C@@H]2[C@@H](O)C[C@@]2(C)[C@H]1CC[C@]2(O)C(=O)COC(=O)CCC1CCCC1 [Hydrocortisone cypionate]
[1]
  Cholesterol-free: 1.099
  Complete: 0.6914
  Difference: −0.41
[2]
  Cholesterol-free media + simvastatin (0.04 μM): 0.7228
  Complete Media: 0.7215
  Difference: 0.00

## C[C@]12CCC(=O)C=C1CC[C@@H]1[C@@H]2[C@@H](O)C[C@@]2(C)[C@H]1CC[C@]2(O)C(=O)CO [Hydrocortisone]
[1]; [13]
  Cholesterol-free: 0.8914
[1]; [14]
  Complete: 1.03
[1]; complete vs cholesterol-free media, >0 enhanced anti-cancer activity, about 0 neutral, <0 antagonist
  Difference: 0.14
[2]; [22]
  Cholesterol-free media + simvastatin (0.04 μM): 0.4287
[2]; [23]
  Complete Media: 0.4959
[2]; [18]
  Difference: 0.07

## CC[C@H]1CN2CC[C@H]1C[C@@H]2[C@@H](O)c1ccnc2ccc(OC)cc12 [Hydroquinidine]
[1]; [3]
  Difference: 0.06
[1]; [13]
  Cholesterol-free: 0.8191
[1]; [14]
  Complete: 0.8815
[2]; [19]
  Cholesterol-free media + simvastatin (0.04 μM): 1.791
[2]; [20]
  Complete Media: 1.518
[2]; [7]
  Difference: −0.27

## CCN(CCO)CCCC(C)Nc1ccnc2cc(Cl)ccc12 (centres unmarked) [Hydroxychloroquine sulfate]
[1]; [24]
  Difference: −0.72
[1]; [25]
  Complete: 0.895
[2]; [22]
  Cholesterol-free media + simvastatin (0.04 μM): 0.9769
[2]; [23]
  Complete Media: 1.024
[2]; [18]
  Difference: 0.05

## O=c1[nH]ccc2c(S(=O)(=O)N3CCCNCC3)cccc12 [Hydroxyfasudil (hydrochloride)]
[1]
  Cholesterol-free: 1.045
  Complete: 0.7884
  Difference: −0.26
[2]
  Cholesterol-free media + simvastatin (0.04 μM): 0.8461
  Complete Media: 0.9788
  Difference: 0.13

## O=c1[nH]ccc2c(S(=O)(=O)N3CCCNCC3)cccc12 [Hydroxyfasudil]
[1]
  Cholesterol-free: 0.944
  Complete: 1.011
  Difference: 0.07
[2]
  Cholesterol-free media + simvastatin (0.04 μM): 0.9404
  Complete Media: 0.8562
  Difference: −0.08

## CCCCCC(=O)O[C@]1(C(C)=O)CC[C@H]2[C@@H]3CCC4=CC(=O)CC[C@]4(C)[C@H]3CC[C@@]21C [Hydroxyprogesterone caproate]
[1]; [4]
  Cholesterol-free: 1.133
[1]; NCI-H292 cells, complete media
  Complete: 0.7393
[1]; [21]
  Difference: −0.39
[2]; [11]
  Cholesterol-free media + simvastatin (0.04 μM): 1.029
[2]; [10]
  Complete Media: 0.8959
[2]; [7]
  Difference: −0.13

## NC(=O)NO [Hydroxyurea]
[1]; [24]
  Difference: −0.79
[1]; NCI-H292 cells in cholesterol-free media without statin
  Cholesterol-free: 1.72
[1]; [25]
  Complete: 0.9327
[2]; [19]
  Cholesterol-free media + simvastatin (0.04 μM): 1.418
[2]; [20]
  Complete Media: 1.131
[2]; [7]
  Difference: −0.29
